In ChEMBL document CHEMBL1201862, “PubChem BioAssay data set” (2004):
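Exposure lasted 48 hours, with cells grown in 96-well plates and compounds tested at five concentrations. At the GI50, growth is halved.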 Calls of active or inactive are those of the source. No stated cut-off is given here; in the data, active = GI50 up to about 1.1 µM and inactive = higher.

Assays:
Assay in all cases: inhibition of tumour cell growth, NCI panel, 48 h
SK-OV-3 = system: SK-OV-3
M14 = system: M14
NCI-H226 = system: NCI-H226
OVCAR-3 = system: OVCAR-3
SR = system: SR
HCC 2998 = system: HCC 2998
Malme-3M = system: Malme-3M
CCRF-CEM = system: CCRF-CEM
LOX IMVI = system: LOX IMVI
SF-268 = system: SF-268
NCI-H23 = system: NCI-H23
LXFL 529 = system: LXFL 529
HCT-15 = system: HCT-15
SF-295 = system: SF-295
UACC-62 = system: UACC-62
CAKI-1 = system: CAKI-1
MCF7 = system: MCF7
T47D = system: T47D
MDA-N = system: MDA-N
DU-145 = system: DU-145

Structure (SMILES)	GI50 (SK-OV-3)	GI50 (M14)	GI50 (NCI-H226)	GI50 (OVCAR-3)	GI50 (SR)	GI50 (HCC 2998)	GI50 (Malme-3M)	GI50 (CCRF-CEM)	GI50 (LOX IMVI)	GI50 (SF-268)	GI50 (NCI-H23)	GI50 (LXFL 529)	GI50 (HCT-15)	GI50 (SF-295)	GI50 (UACC-62)	GI50 (CAKI-1)	GI50 (MCF7)	GI50 (T47D)	GI50 (MDA-N)	GI50 (DU-145)
O=C(CO)CC(=O)C(=O)Nc1ccccc1	> 100 µM (inactive)	> 100 µM (inactive)	> 100 µM (inactive)	> 100 µM (inactive)	> 100 µM (inactive)	> 100 µM (inactive)	> 100 µM (inactive)	> 100 µM (inactive)	> 100 µM (inactive)	> 100 µM (inactive)	> 100 µM (inactive)	> 100 µM (inactive)	> 100 µM	> 100 µM (inactive)	> 100 µM (inactive)					
O=C1CCC(=O)N1Cc1ccccc1/N=[N+](\[O-])c1ccccc1CN1C(=O)CCC1=O		> 100 µM (inactive)		> 100 µM (inactive)	> 100 µM (inactive)	> 100 µM (inactive)	> 100 µM (inactive)	> 100 µM (inactive)	> 100 µM (inactive)	> 100 µM (inactive)	> 100 µM (inactive)	> 100 µM (inactive)	> 100 µM	> 100 µM (inactive)	> 100 µM (inactive)					
O=C1C2Cc3ccccc3CN2C(=O)N1CCN1CCCC1 (centres undefined)		> 100 µM (inactive)	> 100 µM (inactive)	> 100 µM (inactive)		> 100 µM (inactive)	> 100 µM (inactive)	> 100 µM (inactive)	> 100 µM (inactive)	> 100 µM (inactive)	> 100 µM (inactive)	> 100 µM (inactive)	> 100 µM	> 100 µM (inactive)	> 100 µM (inactive)	64.1 µM (inactive)				
O=[N+]([O-])c1cc(Cl)ccc1S(=O)(=O)c1ccc(Cl)cc1[N+](=O)[O-]	15.8 µM (inactive)	16.7 µM (inactive)	12.4 µM (inactive)	17.3 µM (inactive)	4.19 µM (inactive)		13.5 µM (inactive)	24.1 µM (inactive)	16.1 µM (inactive)	15 µM (inactive)	15.2 µM (inactive)	14.1 µM (inactive)	17.3 µM	15.1 µM (inactive)	16.9 µM (inactive)	19.7 µM (inactive)				
O=c1/c(=C/c2ccc3c(c2)OCO3)sc2nnc(-c3ccco3)n12	> 100 µM (inactive)	> 100 µM (inactive)	> 100 µM (inactive)	> 100 µM (inactive)		> 100 µM (inactive)	> 100 µM (inactive)	> 100 µM (inactive)	> 100 µM (inactive)	> 100 µM (inactive)	> 100 µM (inactive)	> 100 µM (inactive)		82 µM (inactive)	> 100 µM (inactive)	> 100 µM (inactive)				
Cc1nnc(N/N=C(/C(=O)C(C#N)c2ccc(Cl)cc2)C(C#N)c2ccc(Cl)cc2)n1N (centres undefined)		20.7 µM (inactive)	16.1 µM (inactive)	21.5 µM (inactive)		19.4 µM (inactive)	19.4 µM (inactive)	35.6 µM (inactive)	18.6 µM (inactive)	24.1 µM (inactive)	17.8 µM (inactive)	13.4 µM (inactive)	19.7 µM	15.7 µM (inactive)		20.8 µM (inactive)				
COc1ccc(C[P+]2(c3ccccc3)CCCCC2)cc1.O=[N+]([O-])c1ccc(C[P+]2(c3ccccc3)CCCCC2)cc1.[O-][Cl+3]([O-])([O-])[O-].[O-][Cl+3]([O-])([O-])[O-]	> 100 µM (inactive)	66.2 µM (inactive)		41 µM (inactive)		> 100 µM (inactive)	19.3 µM (inactive)	> 100 µM (inactive)	67.5 µM (inactive)	> 100 µM (inactive)	66.8 µM (inactive)	16.4 µM (inactive)	> 100 µM	> 100 µM (inactive)	39.2 µM (inactive)	> 100 µM (inactive)				
CCCCCCCCCCCCCCCC(=O)OCC1OC(n2cc(F)c(=O)[nH]c2=O)C(NC(=O)OCc2ccccc2)C(O)C1O (centres undefined)	24.1 µM (inactive)	17 µM (inactive)		16.1 µM (inactive)		16.3 µM (inactive)	2.79 µM (inactive)	11 µM (inactive)	17.1 µM (inactive)	23.4 µM (inactive)	18.5 µM (inactive)	16.7 µM (inactive)	18.5 µM	16.9 µM (inactive)	17.1 µM (inactive)	16.3 µM (inactive)				
CC1(C)NC(=O)N(CCCCCCN2C(=O)NC(C)(C)C2=O)C1=O	> 100 µM (inactive)	> 100 µM (inactive)	> 100 µM (inactive)			> 100 µM (inactive)	> 100 µM (inactive)	> 100 µM (inactive)	> 100 µM (inactive)	> 100 µM (inactive)	> 100 µM (inactive)	> 100 µM (inactive)	> 100 µM		> 100 µM (inactive)	> 100 µM (inactive)				
C=C[C@@]1(C)CC(=O)[C@]2(O)[C@@]3(C)[C@@H](O)CCC(C)(C)[C@@H]3[C@H](O)[C@@H](OC(C)=O)[C@@]2(C)O1	95.1 µM (inactive)	> 100 µM (inactive)	> 100 µM (inactive)	> 100 µM (inactive)	> 100 µM (inactive)	> 100 µM (inactive)	> 100 µM (inactive)	> 100 µM (inactive)	> 100 µM (inactive)	> 100 µM (inactive)	> 100 µM (inactive)		> 100 µM	> 100 µM (inactive)	> 100 µM (inactive)	27.1 µM (inactive)	22.1 µM (inactive)	54.5 µM (inactive)	> 100 µM (inactive)	> 100 µM (inactive)
CCOc1ccc(/C=C2\N=C(c3ccc([N+](=O)[O-])cc3)OC2=O)cc1	> 100 µM (inactive)	> 100 µM (inactive)	> 100 µM (inactive)	> 100 µM (inactive)	> 100 µM (inactive)	> 100 µM (inactive)	> 100 µM (inactive)	> 100 µM (inactive)	> 100 µM (inactive)	> 100 µM (inactive)	> 100 µM (inactive)		> 100 µM	> 100 µM (inactive)	> 100 µM (inactive)	> 100 µM (inactive)	> 100 µM (inactive)	> 100 µM (inactive)	> 100 µM (inactive)	> 100 µM (inactive)
C=CCCC(O)c1cc(C)c(O)c(C)c1 (centres undefined)	> 100 µM (inactive)	> 100 µM (inactive)	> 100 µM (inactive)	> 100 µM (inactive)		> 100 µM (inactive)	> 100 µM (inactive)	> 100 µM (inactive)	> 100 µM (inactive)	> 100 µM (inactive)	> 100 µM (inactive)	> 100 µM (inactive)	> 100 µM	> 100 µM (inactive)	> 100 µM (inactive)					
COc1ccc(/C=C/CO)cc1OC	> 100 µM (inactive)		49.9 µM (inactive)	> 100 µM (inactive)	> 100 µM (inactive)	> 100 µM (inactive)	> 100 µM (inactive)			> 100 µM (inactive)	> 100 µM (inactive)	> 100 µM (inactive)	> 100 µM	> 100 µM (inactive)	> 100 µM (inactive)					
Clc1ccc2c(c1)C1C(CO2)C(c2ccccc2)=NN1c1ccccc1 (centres undefined)	> 100 µM (inactive)			23 µM (inactive)		43.8 µM (inactive)	43 µM (inactive)	24.9 µM (inactive)	> 10 µM (inactive)	42.5 µM (inactive)	33.7 µM (inactive)	29.6 µM (inactive)		35.6 µM (inactive)						
